Test results published in patent US20130317055A1, “NEURONAL NICOTINIC AGONIST AND METHODS OF USE” (ABBVIE INC., priority 2012, published 2013).

Columns and labels:
[1] = test system: clinically stable subjects with schizophrenia; assay: Clinical Study A: UCSD Performance-Based Skills Assessment-2 (UPSA-2); format: in vivo, human; settings: for UPSA-2 Total Score: Difference from Placebo LS Mean (SE) of Difference / UPSA-2 Total Score: LS Mean (SE) of Change: Baseline to Final Evaluation, ANCOVA; for UPSA-2 Total Score: Observed Mean (SD) Final: Final Evaluation
Text: (§1) A Phase 2a proof-of-concept (POC) study in clinically stable subjects with schizophrenia who were clinically stable and received stable doses of atypical antipsychotic therapy. The study was a Phase 2, multi-center, randomized, double-blind, placebo-controlled, parallel group study designed to evaluate the safety and efficacy of doses of (4s)-4-(5-phenyl-1,3,4-thiadiazol-2-yloxy)-1-azatricyclo[3.3.1.1^3,7]decane (Compound A) in clinically stable male and female subjects (ages 20 to 55, inclusive) with a Diagnostic and Statistical Manual of Mental Disorders Fourth Edition, Text Revision (DSM-IV-TR) diagnosis of schizophrenia. Psychiatric diagnoses were confirmed using the Mini-International Neuropsychiatric Interview (MINI) version 6.0.0. The criteria for clinical stability was determined by a combination of retrospective data (over the 4 months prior to the start of Screening, which will be supported by clinical records, patient, identified responsible contact person, and physician interviews), and prospective data assessed during the Prospective Stabilization Period of 28 to 42 days duration.
(§2) The study was a Phase 2, multi-center, randomized, double-blind, placebo-controlled, parallel group study designed to evaluate the safety and efficacy of doses of (4s)-4-(5-phenyl-1,3,4-thiadiazol-2-yloxy)-1-azatrieyclo[3.3.1.1^3,7]decane, which is also recognized as Compound A, in treating cognitive deficits in subjects with schizophrenia who were clinically stable and receiving one or two atypical antipsychotic medications. Study drug was administered orally.
(§3) The study consisted of a screening period of at least 28 and up to 42 days, a 84-day outpatient treatment period, a 14-day post-treatment period, and a post-treatment follow-up period. The screening period consisted of three visits: Screening Visit 1, Screening Visit 2, and Day −1. Upon completion of Day −1 procedures, eligible subjects were randomized through an Interactive Voice Response/Interactive Web-Based (IVR/IWB) system. Subjects were randomized in an equal ratio to one of three treatment groups (placebo, 10 mg Compound A, or 25 mg Compound A).
(§4) Subjects were randomized in a 1:1:1 ratio with placebo, 10 mg QD Compound A, of 25 mg Compound A. Each subject was instructed to take study drug once-daily in the morning for 12 weeks. Each daily dose was preferably taken with food. The subject and investigator were blinded to the treatment assignment throughout the study. The treatment assignments for the study subjects are shown below in Table 1.
The primary endpoint was the MCCB composite score, and the primary endpoint analysis was the change on the MCCB composite score from baseline to endpoint versus placebo. Other secondary measures included the MCCB domains, the NSA-16, the CANTAB cognition battery (measured at different time points from the MCCB), and the UPSA-2. The Positive and Negative Syndrome Scale (PANSS) was included to document stability in schizophrenia symptomatology.
The UCSD Performance-Based Skills Assesstnent-2 (UPSA-2) is a role-play test designed for subjects with schizophrenia to evaluate cognitive functional capacity in six selected domains of basic living skills. These areas include Organization/Planning Financial Skills, Communication, Transportation, Household Management, and Medication Management. […] Scores were obtained for each subtest, and the total score was the sum of these subtests. […] The UPSA-2 required an average of 30 minutes to administer. The UPSA-2 was administered in on Days 14, 28, 56, 84 and 98.

[2] = test system: clinically stable subjects with schizophrenia; assay: Clinical Study A: disposition of subjects, discontinuations and tolerability; format: in vivo, human
Text: as §1, §2, §3, §4
Subjects completed 2 visits during the screening period. Study site personnel contacted each subject by telephone on Day 21, 35, and 70 of the 84-day treatment period to discuss study drug compliance, antipsychotic medication compliance, concomitant medication use, substance use, and any adverse events.
A total of 207 subjects were randomized.

Compound: c1ccc(-c2nnc(O[C@@H]3C4CC5C[C@H]3C[N@](C5)C4)s2)cc1 [Compound A, (4s)-4-(5-phenyl-1,3,4-thiadiazol-2-yloxy)-1-azatricyclo[3.3.1.1^3,7]decane]
- UPSA-2 Total Score: Difference from Placebo LS Mean (SE) of Difference ([1]; 10 mg QD): 0.51 (2.15)
- UPSA-2 Total Score: LS Mean (SE) of Change ([1]; 10 mg QD): 2.78 (1.52)
- UPSA-2 Total Score: Observed Mean (SD) Final ([1]; 10 mg QD): 87.98 (20.36)
- UPSA-2 Total Score: Difference from Placebo LS Mean (SE) of Difference ([1]; 25 mg QD): 0.63 (2.34)
- UPSA-2 Total Score: LS Mean (SE) of Change ([1]; 25 mg QD): 2.89 (1.70)
- UPSA-2 Total Score: Observed Mean (SD) Final ([1]; 25 mg QD): 94.29 (15.85)
- UPSA-2 composite score: significance versus placebo ([1]; either dose group (10 mg, 25 mg)): No significance
- Discontinuation, primary reason Adverse event, % of treated subjects ([2]; 10 mg QD): (5.8) %
- Discontinuation, primary reason Adverse event, % of treated subjects ([2]; 25 mg QD): (4.5) %
- Discontinuation, primary reason Adverse event, % of treated subjects ([2]; Compound A Overall): (5.1) %
- Tolerability ([2]; human patients with schizophrenia, summary statement): generally well tolerated
- Tolerability ([2]; subjects with schizophrenia, doses up to 25 mg QD, including 10 mg QD and 25 mg QD): well tolerated
